Data on eight compounds can be found in ChEMBL document CHEMBL3774343, “Discovery of CREBBP Bromodomain Inhibitors by High-Throughput Docking and Hit Optimization Guided by Molecular Dynamics” (J Med Chem, 2016).

Each structure is given as a SMILES string. Peptide text beside a SMILES is read from it. Bounds are passed on as bounds.

The target of experiment [1] is T1, CREB-binding protein (Homo sapiens, UniProt Q92793). Nature of the experiment: Binding affinity to human CREBBP at 100 uM by thermal shift assay.
Target sequence in this assay (Q92793 2-2442 limits assumed): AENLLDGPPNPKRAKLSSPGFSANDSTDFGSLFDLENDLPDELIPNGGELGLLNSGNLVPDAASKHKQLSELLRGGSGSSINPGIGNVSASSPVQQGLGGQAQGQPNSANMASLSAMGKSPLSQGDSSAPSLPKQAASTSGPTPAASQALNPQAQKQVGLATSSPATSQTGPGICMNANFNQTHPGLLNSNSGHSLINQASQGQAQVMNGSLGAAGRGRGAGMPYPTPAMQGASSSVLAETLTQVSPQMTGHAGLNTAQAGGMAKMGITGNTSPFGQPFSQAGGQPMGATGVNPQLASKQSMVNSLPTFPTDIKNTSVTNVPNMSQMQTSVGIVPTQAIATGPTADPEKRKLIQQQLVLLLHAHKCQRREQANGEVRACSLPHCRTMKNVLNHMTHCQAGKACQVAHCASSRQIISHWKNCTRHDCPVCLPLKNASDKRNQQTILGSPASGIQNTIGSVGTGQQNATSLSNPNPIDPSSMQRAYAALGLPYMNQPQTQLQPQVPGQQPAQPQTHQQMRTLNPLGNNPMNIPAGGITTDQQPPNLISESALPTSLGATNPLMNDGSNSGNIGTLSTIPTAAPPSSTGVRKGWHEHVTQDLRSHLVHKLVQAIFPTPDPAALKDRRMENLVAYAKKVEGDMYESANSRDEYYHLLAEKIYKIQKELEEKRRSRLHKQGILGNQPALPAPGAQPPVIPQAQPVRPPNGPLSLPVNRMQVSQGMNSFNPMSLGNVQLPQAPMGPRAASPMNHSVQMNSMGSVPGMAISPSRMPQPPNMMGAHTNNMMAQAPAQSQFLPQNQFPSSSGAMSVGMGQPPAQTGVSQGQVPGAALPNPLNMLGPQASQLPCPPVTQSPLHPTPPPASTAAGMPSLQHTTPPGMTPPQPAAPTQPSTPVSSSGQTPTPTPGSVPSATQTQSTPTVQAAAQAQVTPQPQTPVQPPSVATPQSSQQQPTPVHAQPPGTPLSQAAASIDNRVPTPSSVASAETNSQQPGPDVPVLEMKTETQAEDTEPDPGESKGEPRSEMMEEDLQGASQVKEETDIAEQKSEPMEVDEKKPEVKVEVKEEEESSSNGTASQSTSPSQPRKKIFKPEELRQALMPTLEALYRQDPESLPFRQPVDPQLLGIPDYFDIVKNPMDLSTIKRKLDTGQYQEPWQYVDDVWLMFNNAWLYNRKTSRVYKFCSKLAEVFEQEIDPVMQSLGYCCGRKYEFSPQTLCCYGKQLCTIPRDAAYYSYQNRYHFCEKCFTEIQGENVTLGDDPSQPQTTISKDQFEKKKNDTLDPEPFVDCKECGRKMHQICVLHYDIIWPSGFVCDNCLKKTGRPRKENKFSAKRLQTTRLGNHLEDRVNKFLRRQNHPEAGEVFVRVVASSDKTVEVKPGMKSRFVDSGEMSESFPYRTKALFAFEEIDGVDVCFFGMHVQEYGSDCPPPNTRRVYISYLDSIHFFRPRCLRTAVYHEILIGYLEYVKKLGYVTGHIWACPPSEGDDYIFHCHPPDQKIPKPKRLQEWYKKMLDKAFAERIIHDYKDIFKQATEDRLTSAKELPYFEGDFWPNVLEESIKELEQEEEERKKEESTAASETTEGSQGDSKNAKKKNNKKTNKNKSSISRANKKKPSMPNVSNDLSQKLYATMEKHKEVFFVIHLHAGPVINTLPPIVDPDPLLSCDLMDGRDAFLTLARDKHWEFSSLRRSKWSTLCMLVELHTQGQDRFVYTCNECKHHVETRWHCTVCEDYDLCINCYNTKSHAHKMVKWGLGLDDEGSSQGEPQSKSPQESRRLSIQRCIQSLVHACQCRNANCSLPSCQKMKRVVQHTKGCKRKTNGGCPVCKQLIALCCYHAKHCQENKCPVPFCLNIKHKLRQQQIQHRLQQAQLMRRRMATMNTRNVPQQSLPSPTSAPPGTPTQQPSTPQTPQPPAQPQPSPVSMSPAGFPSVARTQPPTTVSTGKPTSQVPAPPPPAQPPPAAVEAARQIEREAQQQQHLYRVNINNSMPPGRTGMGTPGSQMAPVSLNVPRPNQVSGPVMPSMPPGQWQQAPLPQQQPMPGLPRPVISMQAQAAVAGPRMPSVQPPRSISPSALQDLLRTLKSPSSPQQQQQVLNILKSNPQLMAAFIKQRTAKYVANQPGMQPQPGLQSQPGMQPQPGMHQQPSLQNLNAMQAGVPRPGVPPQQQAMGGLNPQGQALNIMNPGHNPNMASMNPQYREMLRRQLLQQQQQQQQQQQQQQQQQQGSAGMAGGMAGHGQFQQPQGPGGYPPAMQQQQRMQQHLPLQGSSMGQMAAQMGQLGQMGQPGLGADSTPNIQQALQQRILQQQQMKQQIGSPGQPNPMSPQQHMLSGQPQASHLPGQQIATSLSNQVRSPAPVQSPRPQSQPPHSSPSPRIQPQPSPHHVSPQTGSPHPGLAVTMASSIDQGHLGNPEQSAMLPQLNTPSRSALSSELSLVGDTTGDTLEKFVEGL
The target in experiment [2] is T1, CREB-binding protein. Briefly: Competitive binding affinity to partial length human CREBBP expressed in Escherichia coli BL21 after 1 hr by BROMOscan assay.
Target sequence in this assay (Q92793 whole entry): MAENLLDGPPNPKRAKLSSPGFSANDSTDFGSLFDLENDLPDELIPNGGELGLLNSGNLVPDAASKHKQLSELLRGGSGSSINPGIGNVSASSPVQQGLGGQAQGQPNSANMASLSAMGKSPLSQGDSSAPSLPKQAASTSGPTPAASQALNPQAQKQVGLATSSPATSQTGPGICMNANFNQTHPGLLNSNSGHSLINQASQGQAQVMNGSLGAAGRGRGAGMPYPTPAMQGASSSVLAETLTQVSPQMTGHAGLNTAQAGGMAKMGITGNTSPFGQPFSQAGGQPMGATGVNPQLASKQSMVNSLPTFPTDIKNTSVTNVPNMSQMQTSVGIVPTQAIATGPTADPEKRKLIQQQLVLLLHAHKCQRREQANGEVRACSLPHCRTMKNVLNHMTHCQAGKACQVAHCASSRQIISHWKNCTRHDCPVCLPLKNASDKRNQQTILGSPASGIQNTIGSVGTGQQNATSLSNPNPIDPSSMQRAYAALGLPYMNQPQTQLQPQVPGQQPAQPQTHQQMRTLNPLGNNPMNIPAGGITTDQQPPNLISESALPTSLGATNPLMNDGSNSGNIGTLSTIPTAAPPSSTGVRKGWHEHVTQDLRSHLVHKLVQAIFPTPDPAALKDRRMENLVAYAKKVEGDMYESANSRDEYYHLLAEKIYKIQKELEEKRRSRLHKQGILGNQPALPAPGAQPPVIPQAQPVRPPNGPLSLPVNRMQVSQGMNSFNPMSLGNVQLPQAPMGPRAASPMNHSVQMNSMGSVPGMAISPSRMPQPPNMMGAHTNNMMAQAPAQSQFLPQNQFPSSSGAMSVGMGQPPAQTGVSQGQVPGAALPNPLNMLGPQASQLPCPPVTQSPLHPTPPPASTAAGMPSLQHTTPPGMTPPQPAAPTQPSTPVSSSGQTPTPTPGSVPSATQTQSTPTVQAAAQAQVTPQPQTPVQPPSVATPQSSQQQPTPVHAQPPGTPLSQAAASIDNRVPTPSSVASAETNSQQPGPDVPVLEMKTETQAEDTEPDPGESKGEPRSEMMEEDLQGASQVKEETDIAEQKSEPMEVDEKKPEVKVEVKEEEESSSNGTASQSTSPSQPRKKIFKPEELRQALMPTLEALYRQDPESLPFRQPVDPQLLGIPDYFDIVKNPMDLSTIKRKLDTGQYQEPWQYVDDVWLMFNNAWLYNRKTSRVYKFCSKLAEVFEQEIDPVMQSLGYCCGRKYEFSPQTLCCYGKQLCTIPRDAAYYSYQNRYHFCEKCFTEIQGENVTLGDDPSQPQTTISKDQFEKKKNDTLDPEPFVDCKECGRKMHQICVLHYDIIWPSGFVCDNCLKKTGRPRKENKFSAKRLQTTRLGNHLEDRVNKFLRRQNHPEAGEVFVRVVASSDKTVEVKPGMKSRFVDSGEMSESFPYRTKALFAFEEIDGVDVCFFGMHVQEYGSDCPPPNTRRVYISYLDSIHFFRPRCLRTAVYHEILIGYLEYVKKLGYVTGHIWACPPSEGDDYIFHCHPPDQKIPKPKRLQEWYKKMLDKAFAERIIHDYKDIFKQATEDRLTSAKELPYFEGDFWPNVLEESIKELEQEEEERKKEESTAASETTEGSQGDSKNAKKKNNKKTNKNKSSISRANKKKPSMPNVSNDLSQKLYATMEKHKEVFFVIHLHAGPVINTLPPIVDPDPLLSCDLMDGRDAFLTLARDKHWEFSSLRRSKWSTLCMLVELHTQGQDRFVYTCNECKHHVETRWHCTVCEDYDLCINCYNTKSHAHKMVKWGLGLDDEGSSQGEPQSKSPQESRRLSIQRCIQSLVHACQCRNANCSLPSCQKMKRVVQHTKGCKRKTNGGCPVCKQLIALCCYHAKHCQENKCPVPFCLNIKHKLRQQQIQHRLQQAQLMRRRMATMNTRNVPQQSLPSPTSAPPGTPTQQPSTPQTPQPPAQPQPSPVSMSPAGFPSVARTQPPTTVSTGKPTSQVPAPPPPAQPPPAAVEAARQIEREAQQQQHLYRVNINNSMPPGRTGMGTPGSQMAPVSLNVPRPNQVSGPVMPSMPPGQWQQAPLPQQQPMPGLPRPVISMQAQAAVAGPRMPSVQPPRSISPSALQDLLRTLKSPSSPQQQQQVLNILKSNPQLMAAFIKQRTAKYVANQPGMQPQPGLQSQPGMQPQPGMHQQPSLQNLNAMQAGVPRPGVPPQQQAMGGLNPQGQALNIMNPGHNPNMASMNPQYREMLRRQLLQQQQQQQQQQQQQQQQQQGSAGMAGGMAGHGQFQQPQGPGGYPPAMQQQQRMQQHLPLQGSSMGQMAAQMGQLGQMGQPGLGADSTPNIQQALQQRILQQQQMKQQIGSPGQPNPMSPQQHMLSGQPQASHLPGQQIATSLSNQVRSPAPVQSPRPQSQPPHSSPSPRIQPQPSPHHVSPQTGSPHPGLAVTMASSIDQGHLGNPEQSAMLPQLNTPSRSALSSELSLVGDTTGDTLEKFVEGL
Experiment [3] addresses T1, CREB-binding protein. Nature of the experiment: Binding affinity to N-terminal GST-tagged recombinant human CREBBP expressed in Escherichia coli after 2 hrs using BET bromodomain ligand by TR-FRET assay. In general terms: TR-FRET usually uses a lanthanide donor and a delayed reading to cut background.
Target sequence in this assay (Q92793 whole entry): as above
For experiment [4], the target named is T1, CREB-binding protein. Briefly: Competitive binding affinity to partial length human CREBBP expressed in Escherichia coli BL21 at 50 uM after 1 hr by BROMOscan assay relative to control.
Target sequence in this assay (Q92793 2-2442 limits assumed): as the sequence (Q92793 2-2442 limits assumed) above
For experiment [5], the species on record is Homo sapiens. Nature of the experiment: Selectivity ratio of Kd for BRD4 bromodomain 1 (unknown origin) to Kd for partial length human CREBBP expressed in Escherichia coli BL21.
Experiment [6] has as its target T1, CREB-binding protein. Nature of the experiment: Binding affinity to CREBBP (unknown origin) by fluorescence polarization assay. (In general: Fluorescence polarisation rises when a labelled molecule tumbles more slowly, as on binding a larger partner.)
Target sequence in this assay (Q92793 whole entry): as the sequence (Q92793 whole entry) above

For the compound `CC(=O)c1c(C)[nH]c(C(=O)Nc2cccc(C(=O)O)c2)c1C`, the ΔTm in experiment [1] was 2.3 °C. Besides, in experiment [2], the affinity, expressed as Kd, was 4.2 µM. For the same compound, in experiment [3], the IC50 was 1.5 µM.
`CCCc1c(C(=O)NCc2c(C)cc(C)[nH]c2=O)[nH]c(C)c1C(C)=O`: the ΔTm in experiment [1] is 0.3 °C. Besides, the Activity in experiment [4] came out at 3%.
`COC(=O)c1ccc(C)c(NC(=O)c2[nH]c(C)c(C(C)=O)c2C)c1` yielded an Activity in experiment [4] of 20%.
For `CC(=O)c1c(C)[nH]c(C(=O)Nc2cc(C(=O)O)ccc2C)c1C`, in experiment [1], the ΔTm was found to be 1.4 °C. In experiment [3], the IC50 is greater than 10 µM.
Consider `CCOc1ccc(C(C)=O)cc1NC(=O)c1cccc(C(=O)O)c1`, for which the Ratio in experiment [5] was greater than 65.
For the compound `CC(=O)c1c(C)[nH]c(C(=O)Nc2cc(-c3nnco3)ccc2C)c1C`, the ΔTm in experiment [1] worked out at 0.3 °C. The same compound yielded a Kd in experiment [2] of 13 µM. Also, the IC50 in experiment [3] is greater than 100 µM. In experiment [4], this compound had an Activity of 9%.
In the case of `CC(=O)NCCCC[C@@H]1NC(=O)[C@H](CCCCN)NC(=O)[C@H](Cc2c[nH]c3ccccc23)NC(=O)[C@@H](NC(C)=O)CSSC[C@@H](C(=O)N[C@@H](Cc2ccccc2)C(=O)N[C@@H](CCCCN)C(N)=O)NC(=O)[C@H](CC(C)C)NC1=O` (HELM PEPTIDE1{[ac].C.W.K.K.L.C.F.K.[am]}|PEPTIDE2{[ac]}$PEPTIDE1,PEPTIDE2,5:R3-1:R2|PEPTIDE1,PEPTIDE1,2:R3-7:R3$$$V2.0), the IC50 in experiment [6] stood at 5 µM.
As to `CCn1cnnc1CNC(=O)c1[nH]c(C)c(C(C)=O)c1C`, the ΔTm in experiment [1] worked out at 1.3 °C. Further, the Activity in experiment [4] was found to be 5%.

A word on the ΔTm: it is the change in melting temperature against a reference sample. The term Kd denotes the equilibrium constant for the complex coming apart. One may read the IC50 as the concentration that gives 50% inhibition.
